Data: ChEMBL document CHEMBL1201862, “PubChem BioAssay data set” (2004)
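Cultured in 96-well plates, cells were exposed to test compound for 48 hours across five concentrations. Abbreviation: GI50, concentration required for 50% inhibition of growth.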 Activity calls are given as the source filed them. Rule as the data show it: active = GI50 up to about 1.1 µM and inactive = higher. Where a SMILES comes first, the peptide text is derived from it. The star is where a group is joined. Boc = CC(C)(C)OC(=O)*

How the values were obtained:
Experiment in all cases: NCI-60 cell line screen, 48 h
[1] = system: KM12
[2] = system: K562
[3] = system: MCF7
[4] = system: HOP-92
[5] = system: SF-295
[6] = system: UO-31
[7] = system: OVCAR-5
[8] = system: OVCAR-4
[9] = system: SK-MEL-28
[10] = system: ACHN
[11] = system: BT-549
[12] = system: OVCAR-3
[13] = system: MDA-N
[14] = system: HL-60
[15] = system: SN12C
[16] = system: NCI-H460
[17] = system: MDA-MB-435
[18] = system: 786-0
[19] = system: NCI/ADR-RES
[20] = system: SK-MEL-5

Row | SMILES | GI50 [1] | GI50 [2] | GI50 [3] | GI50 [4] | GI50 [5] | GI50 [6] | GI50 [7] | GI50 [8] | GI50 [9] | GI50 [10] | GI50 [11] | GI50 [12] | GI50 [13] | GI50 [14] | GI50 [15] | GI50 [16] | GI50 [17] | GI50 [18] | GI50 [19] | GI50 [20]
1 | Nc1nc(Cl)c(N)c(NCC2(CO)CC(CCCc3ccccc3)C2)n1 (stereo unspecified) | 21.5 µM (inactive) | 10.8 µM (inactive) | 8.02 µM (inactive) | 51.1 µM (inactive) | 14 µM (inactive) | 12.9 µM (inactive) | > 100 µM (inactive) | > 33.7 µM (inactive) | 47.1 µM (inactive) | 35.6 µM (inactive) | 15.5 µM (inactive) | 19.1 µM (inactive) | 19.3 µM (inactive) | 0.117 µM (active) | 62.7 µM (inactive) | 33.7 µM (inactive) | 11.6 µM (inactive) | 22.7 µM (inactive) | – | –
2 | CC(C)(SCc1ccccc1)C(N)C(=O)O (stereo unspecified) | > 100 µM (inactive) | > 100 µM (inactive) | – | > 100 µM (inactive) | > 100 µM (inactive) | > 100 µM (inactive) | > 100 µM (inactive) | > 100 µM (inactive) | > 100 µM (inactive) | > 100 µM (inactive) | > 100 µM (inactive) | > 100 µM (inactive) | > 100 µM (inactive) | > 100 µM (inactive) | > 100 µM (inactive) | > 100 µM (inactive) | > 100 µM (inactive) | > 100 µM (inactive) | > 100 µM (inactive) | > 100 µM (inactive)
3 | CC1=CCC[C@H]2[C@](C)(CC3=CC(=O)C(SCC(C)C)=CC3=O)[C@@H](C)CC[C@]12C | 11.2 µM (inactive) | 5.78 µM (inactive) | 9.71 µM (inactive) | 4.84 µM (inactive) | 16.1 µM (inactive) | 11.7 µM (inactive) | 18.5 µM (inactive) | 15.3 µM (inactive) | 15.8 µM (inactive) | 15.6 µM (inactive) | 17.6 µM (inactive) | 17.4 µM (inactive) | – | – | 24.9 µM (inactive) | 14.6 µM (inactive) | 15.7 µM (inactive) | 14 µM (inactive) | 16 µM (inactive) | 12.8 µM (inactive)
4 | Cn1/c(=N\S(=O)(=O)c2ccccc2)n(S(=O)(=O)c2ccccc2)c2ccccc21 | 26.2 µM (inactive) | 39.9 µM (inactive) | – | > 10 µM (inactive) | 62.1 µM (inactive) | 34.7 µM (inactive) | > 100 µM (inactive) | > 100 µM (inactive) | > 100 µM (inactive) | 34.5 µM (inactive) | > 100 µM (inactive) | 36.2 µM (inactive) | 61.5 µM (inactive) | 0.598 µM (active) | 87.3 µM (inactive) | – | 58.9 µM (inactive) | 88.5 µM (inactive) | 38.6 µM (inactive) | 35.7 µM (inactive)
5 | O=C(Cn1cc(-c2ccccc2)nn1)NC1CCCC1 | > 100 µM (inactive) | > 100 µM (inactive) | > 100 µM (inactive) | > 100 µM (inactive) | > 100 µM (inactive) | – | > 100 µM (inactive) | > 100 µM (inactive) | > 100 µM (inactive) | > 100 µM (inactive) | > 100 µM (inactive) | – | – | > 100 µM (inactive) | > 100 µM (inactive) | > 100 µM (inactive) | > 100 µM (inactive) | > 100 µM (inactive) | > 100 µM (inactive) | > 100 µM (inactive)
6 | O=Cc1ccc2c(c1)CC1(C2)Cc2ccc(C=O)cc2C1 | 28.1 µM (inactive) | 2.89 µM (inactive) | 31.8 µM (inactive) | 20.6 µM (inactive) | > 45.2 µM (inactive) | 11.9 µM (inactive) | > 77.1 µM (inactive) | 12.4 µM (inactive) | 23.7 µM (inactive) | 24.4 µM (inactive) | – | 13.9 µM (inactive) | 2.45 µM (inactive) | 2 µM (inactive) | 28.2 µM (inactive) | 11.6 µM (inactive) | 2.62 µM (inactive) | 7.45 µM (inactive) | 4.88 µM (inactive) | 5.28 µM (inactive)
7 | N#C[BH2-][n+]1ccc(C(=O)NNC(c2ccccc2)C(F)(F)F)cc1 (stereo unspecified) | > 100 µM (inactive) | > 100 µM (inactive) | > 100 µM (inactive) | 1 µM (active) | > 100 µM (inactive) | – | > 100 µM (inactive) | > 100 µM (inactive) | > 100 µM (inactive) | > 100 µM (inactive) | > 100 µM (inactive) | – | – | > 100 µM (inactive) | > 100 µM (inactive) | > 100 µM (inactive) | > 100 µM (inactive) | > 100 µM (inactive) | > 100 µM (inactive) | > 100 µM (inactive)
8 | COc1ccc(N[C@H](C[S+]([O-])c2ccc(C)cc2)c2ccc(F)cc2)cc1 (stereo partly specified) | > 100 µM (inactive) | > 100 µM (inactive) | 16.6 µM (inactive) | – | 41.8 µM (inactive) | > 100 µM (inactive) | > 100 µM (inactive) | 94.2 µM (inactive) | > 100 µM (inactive) | 52.6 µM (inactive) | > 100 µM (inactive) | > 100 µM (inactive) | 39.3 µM (inactive) | – | 54.3 µM (inactive) | 91.2 µM (inactive) | > 100 µM (inactive) | 65.3 µM (inactive) | 26.9 µM (inactive) | 12.9 µM (inactive)
9 | COc1cc(/C=C/C=C2\CC(C)C/C(=C\C=C\c3ccc(O)c(OC)c3)C2=O)ccc1O (stereo unspecified) | 31.7 µM (inactive) | 3.93 µM (inactive) | 5.6 µM (inactive) | 7.23 µM (inactive) | – | 5.06 µM (inactive) | 14.4 µM (inactive) | 4.83 µM (inactive) | 6.92 µM (inactive) | 4.98 µM (inactive) | 8.61 µM (inactive) | 10.8 µM (inactive) | – | 7.35 µM (inactive) | 31.3 µM (inactive) | 14.5 µM (inactive) | 8.32 µM (inactive) | 12.4 µM (inactive) | 25.1 µM (inactive) | 10.5 µM (inactive)
10 | c1ccc2c(c1)ccc1nc(-c3ccc4c(c3)OCO4)c3c(c12)CCC3 | 34 µM (inactive) | 20.5 µM (inactive) | 68.1 µM (inactive) | – | 77.4 µM (inactive) | 78 µM (inactive) | > 100 µM (inactive) | 57.1 µM (inactive) | > 100 µM (inactive) | > 100 µM (inactive) | > 100 µM (inactive) | > 100 µM (inactive) | > 100 µM (inactive) | – | > 100 µM (inactive) | 45.3 µM (inactive) | 59.6 µM (inactive) | > 100 µM (inactive) | 59.2 µM (inactive) | –
11 | CC(Oc1ccc(Oc2cnc3ccc(Cl)cc3n2)cc1)C(=O)O (stereo unspecified) | > 84.5 µM (inactive) | > 100 µM (inactive) | 26.6 µM (inactive) | – | > 89.9 µM (inactive) | 72.1 µM (inactive) | – | > 92.5 µM (inactive) | > 76.7 µM (inactive) | 60 µM (inactive) | > 73.1 µM (inactive) | > 84.5 µM (inactive) | > 86.7 µM (inactive) | – | > 100 µM (inactive) | 19.1 µM (inactive) | > 84.5 µM (inactive) | > 81.1 µM (inactive) | > 95.3 µM (inactive) | 72.3 µM (inactive)
12 | CC(=O)[C@]1(O)Cc2c(O)c3c(c(O)c2[C@@H](OC2CC(N)C(O)C(C)O2)C1)C(=O)c1c(OCc2ccccc2)cccc1C3=O (stereo partly specified) | 1.41 µM (inactive) | 0.738 µM (active) | – | 3.18 µM (inactive) | 1.23 µM (inactive) | 2.28 µM (inactive) | 2.07 µM (inactive) | 2.43 µM (inactive) | 1.54 µM (inactive) | 0.946 µM (active) | 3.76 µM (inactive) | 2.06 µM (inactive) | 1.58 µM (inactive) | 0.132 µM (active) | 1.37 µM (inactive) | 0.14 µM (active) | 1.43 µM (inactive) | 1.08 µM (active) | – | 1.71 µM (inactive)
13 | CC(=O)Nc1sccc1S(=O)(=O)c1ccc(Cl)cc1 | > 100 µM (inactive) | > 100 µM (inactive) | > 100 µM (inactive) | > 100 µM (inactive) | > 100 µM (inactive) | > 100 µM (inactive) | > 100 µM (inactive) | > 100 µM (inactive) | > 100 µM (inactive) | > 100 µM (inactive) | > 100 µM (inactive) | > 100 µM (inactive) | – | > 100 µM (inactive) | > 100 µM (inactive) | > 100 µM (inactive) | > 100 µM (inactive) | > 100 µM (inactive) | > 100 µM (inactive) | > 100 µM (inactive)
14 | COC(=O)C(Cc1c[nH]c2ccccc12)NC(=O)C(Cc1c[nH]c2ccccc12)NC(=O)C(Cc1c[nH]c2ccccc12)NC(=O)OC(C)(C)C (stereo not drawn) (Boc-Trp-Trp-Trp-OMe; configuration not given here) | 21.5 µM (inactive) | 27 µM (inactive) | > 10 µM (inactive) | 13.2 µM (inactive) | – | 24.3 µM (inactive) | 17.9 µM (inactive) | – | 17.7 µM (inactive) | 18.1 µM (inactive) | 18.1 µM (inactive) | – | 20 µM (inactive) | 16.1 µM (inactive) | 18.9 µM (inactive) | 20.2 µM (inactive) | – | 17.8 µM (inactive) | – | 47.9 µM (inactive)
15 | COC1=C(OC)C(=O)C(Cc2c(Cl)nc3sc(C)cn23)=C(C)C1=O | 13.3 µM (inactive) | 11.9 µM (inactive) | 19.5 µM (inactive) | – | 16.6 µM (inactive) | 17.1 µM (inactive) | 18.2 µM (inactive) | 7.5 µM (inactive) | 17.9 µM (inactive) | 17.1 µM (inactive) | 18 µM (inactive) | 12.2 µM (inactive) | 15.8 µM (inactive) | – | 15.9 µM (inactive) | 16.7 µM (inactive) | 18.2 µM (inactive) | 19.9 µM (inactive) | 14.6 µM (inactive) | 11.2 µM (inactive)
